Our source for the melting point values is a melting point compilation (Tetko et al.; mined from patent text by program, amines drawn as free bases though some values may be those of a salt).

Compound `CCOC(=O)CCC=Cc1ccc2ccccc2c1O` showed a melting point of 63 to 64 °C.
Consider `O=C1NC(C(=O)NCCO[N+](=O)[O-])C(c2ccco2)S1` (centres undefined), for which the melting point was 117 to 118 °C.
Under `CCN(CC)C(=O)c1c(O)c(=O)cc(C)n1C` stands 128 to 130 °C.
With `CC(=O)N1CCc2c(sc(C)c2CCN2CCC(c3noc4cc(F)ccc34)CC2)C1`, the melting point was in the range of 70 to 75 °C.
The compound `CCCCCCCCOc1ccc(-c2ncc(OC(=O)[C@H]3CCCO3)cn2)cc1` yielded a melting point of 90 °C.
Under `CCOC(=O)c1cc2sc(N=CN(C)C)c(C#N)c2s1` stands 168 °C; under `CCOC(=O)N/N=C/c1ccc(OC)c(OC2CCCC2)c1`, 146 to 147 °C; under `O=C1c2ccccc2C(=O)N1CCCC#Cc1ccccn1`, 127 to 129 °C.
For `O=C(O)c1cnc2n(c1=O)CCCCC2` the value was 117 to 119 °C; for `Clc1ccc2c(n1)[nH]c1ccc(Br)cc12`, over 220 °C; for `CC1(C)NC(=O)N(c2ccc([N+](=O)[O-])cc2C(F)(F)F)C1=O`, 175 to 176 °C.
For `NC(=O)c1ccc(CCCOCCCCCCBr)cc1` the value was 79 to 82 °C.
In turn, `CCCC(CCC)N1CCc2c(C(=O)O)cc(F)cc2C1=O` gave a melting point of 143 °C.
For the compound `CC(C(=O)O)c1ccc(-c2ccccc2F)c(O)c1` (centres undefined), the melting point lay in the range of 110 to 111 °C.
For `Cc1ccc2c(c1)N(CC(=O)c1cccs1)C(=O)C(NC(=O)Nc1cccc(C(=O)O)c1)CN2C(=O)c1cccs1` (centres undefined) the value was over 290 °C; for `CC1(C)CC(NC(=O)c2cc([N+](=O)[O-])cc([N+](=O)[O-])c2)CC(C)(C)N1`, 220 to 222 °C; for `COc1cccc(CCCc2c(CC#N)ccc(OC)c2OC)c1`, 78 to 79 °C.
`CC(=O)Oc1cc2c(cc1OC(C)=O)OCC(c1ccccc1)C2` (centres undefined) yielded a melting point of 102 °C.
Under `Cc1c(I)ccc2c1C(=O)NS2(=O)=O` stands 257 to 258 °C.
For `C#CCOc1cccc(-c2nc3cnncc3[nH]2)c1OC` the value was 224 °C; for `Nc1ncnn1C(=S)NCCCCCO`, 108 to 109 °C; for `O=S1(=O)NCCNc2ccc(Oc3cccc(CO)c3)cc21`, 146 °C.
`CCn1cc(C(=O)O)c(=O)c2cnc(N3CCN(Cc4ccc(N)cc4)CC3)nc21` had a melting point of 198 to 201 °C.
In turn, `Nc1nc(NC2CC2c2ccccc2)c2ncn(C3C=CC(CO)C3)c2n1` (centres undefined) gave a melting point of 188 to 190 °C.
Under `C[Si](C)(Cn1ccnc1)c1ccc(-c2ccccc2)cc1` stands 51 to 53 °C; under `N#Cc1ccc(Nn2cnnc2)cc1-c1ccoc1`, 199 to 200 °C; under `CCCCCCCC(=O)Nc1ccc(O)c(C(=O)O)c1`, 200 to 204 °C.
For `O=C1c2ccccc2C(=O)N1CC1CCC2CN(c3ccccn3)CCN2C1` (centres undefined) the value was 167 to 168 °C; for `Cc1csc(C(=O)OC(C)C)c1S(=O)(=O)Cl`, 58 °C.
`O=C1CC(c2cccc(-n3ccnn3)c2)=Nc2ccc(-c3cccc(F)c3F)cc2N1`: the melting point was 230 °C.
On to `COCCc1cccc2oc(C(=O)O)c(C)c12`, for which the melting point is 138 to 140 °C.
For `Cc1ccc(CCCc2c(C)nc(N)nc2N)cc1` the value was 210 to 213 °C.
For `CCCCCCc1c(CCCC)nc2ncnn2c1N` the value was 134 to 136 °C.
`O=C(O)CCCc1cc2nc(Cl)ccc2n1S(=O)(=O)c1cccc2cccnc12` had a melting point of 186 to 189 °C.
Under `CC(C)Nc1nc(-n2cc(C(=O)O)c(=O)c3cc(F)c(N4CC(N)C4)c(Cl)c32)c(F)cc1F` stands 220 to 223 °C; under `Cc1nc(C)c(Cl)c(NCc2nccc(N(C)CCN3CCc4ccccc4C3)c2Cl)n1`, 81 to 93 °C.
For `COC(=O)C(=CNC1CC1)C(=O)C=Cc1ccc2c(c1)OCO2` the value was 158 to 160 °C; for `CC(=O)Nc1cc(N(C)C)ccc1C(=O)c1ccccc1C(=O)O`, 174 to 181 °C.
Under `COc1ccccc1N(C(N)=O)c1ccc(CC(=O)O)cc1C` stands 260 to 264 °C.
`COC(=O)C1CCC2C3CCC4CC5OC5CC4(C)C3C(=O)CC12C` (centres undefined) displayed a melting point of 140 to 145 °C.
Consider `Fc1nc(NCc2ccncc2)c2nc[nH]c2n1`, for which the melting point fell in the range of 200 to 202 °C.
Under `COc1cc(O)c2c(c1O)CC(C)=C(C)C2` stands 200 to 201 °C; under `CCOC(=O)C=Cc1c(C#N)cnn1-c1ccc(Cl)c(Cl)c1Cl`, 131 to 134 °C.
For `CCOC(=O)c1cc(Cl)c(OCc2ccccc2)c(Cl)c1` the value was 66 to 68 °C; for `O=c1n(-c2ccccc2)c(=O)n(SC(Cl)(Cl)Cl)n1SC(Cl)(Cl)Cl`, 175 °C; for `O=C(O)COc1ccc2c(-c3ccc(Cl)cc3)noc2c1`, 207 °C.
In turn, `Cc1ccnc(C(=O)c2[nH]c3ccc(Cl)cc3c2CC(=O)O)c1C` gave a melting point of 236 to 237 °C.
Compound `CC(=O)NC(C)C(=O)Nc1ccc2[nH]cc(C(=O)O)c(=O)c2c1` (centres undefined) had a melting point of 196 to 200 °C.
Under `C#CCOc1ccc2ccc(=S)oc2c1` stands 97 to 101 °C.
Under `COCCCS(=O)(=O)NC(=O)CCc1ccc(OC(C)C)cc1Oc1ncc(C(F)(F)F)cc1Cl` stands 114 to 115 °C; under `CCOC(=O)c1cn2c3c(c(F)c(F)c(N)c3c1=O)CCN2C`, 255 to 257 °C.
In turn, `CCC(CC)C(NS(=O)(=O)c1ccc(Cl)s1)c1ccnn1S(=O)(=O)c1ccc(C)cc1` (centres undefined) showed a melting point of 146 to 148 °C.
Under `CN1CCc2c(Cl)ccc(CO)c2CC1` stands 136 to 140 °C; under `O=C1CCCC(O)=C1C(=O)Nc1ccc(Cl)cc1`, 113 to 114 °C; under `Cc1ccccc1OCCCc1oc(-n2ccnc2)nc1-c1ccc(Cl)cc1`, 113 to 114 °C.
Under `COc1cc(Br)c2c(c1)CCCN2` stands 125 to 126 °C; under `COc1nc2c(c(OC)n1)C(c1ccc(F)c(OC)c1)C1=C(COC1=O)N2` (centres undefined), 267 to 270 °C; under `O=S(=O)(CC(O)(CBr)c1cccc(F)c1)c1ccccc1Cl` (centres undefined), 121 °C.
For `COc1ccccc1C1CSc2ccccc2NC1=O` (centres undefined) the value was 219 °C; for `CCOC(=O)c1ccc(Cc2ccc3c(c2)OCO3)o1`, 67 to 68 °C.
On to `CC(=O)c1ccc(OC(C)(C)C(=O)O)c(Cl)c1`, for which the melting point is 123 to 125 °C.
Under `N#CSc1ccc([N+](=O)[O-])cc1C(Cl)(Cl)Cl` stands 72 °C.
Under `COc1cc(N2CCN(C[C@H](C)O)CC2)ccc1Nc1ncc2ccc(-c3ccccc3S(C)(=O)=O)n2n1` stands 98 to 100 °C; under `COc1ccc(Sc2ccc([N+](=O)[O-])cc2)c(Cl)c1Cl`, 236 to 237 °C.
For `CC(C)CCCC(C)NC(=O)Oc1ccc2oc3ccccc3c2c1` (centres undefined) the value was 114 to 115 °C.
As to `N#Cc1cn(-c2c(Cl)cc(C(F)(F)F)cc2Cl)nc1C(F)(F)F`, the melting point lay in the range of 116 to 118 °C.
For `CCC(=O)Nc1cccc(NC(=O)C2CC2)c1` the value was 185 to 186 °C.
For the compound `NC(=S)NN=C(CCCOC(=O)NCc1ccccc1)c1ccccc1`, the melting point was in the range of 137 to 140 °C.
`CCOc1ccc(OCC(N)=O)c(C(Nc2ccc(C(=N)N)cc2)C(=O)O)c1` (racemic): the melting point was determined as 266 °C.
For `COC(=S)c1cnccc1Cc1ccccc1` the value was 98 to 99 °C; for `C(=C\c1nc(COc2ccc(CCCn3ccnn3)cc2)co1)/c1ccccc1`, 142 to 143 °C.
Under `Cc1nc2cccc3n(CCCCNS(C)(=O)=O)c(=O)c1n23` stands 166 to 167 °C.
For `COCC1OC(=Nc2nccs2)c2c1nc1cc(Cl)ccc1c2O` (centres undefined) the value was over 270 °C; for `CC1Sc2c(C(=O)O)c(=O)c3cc(Cl)c(N4CCN(C)CC4)cc3n21` (centres undefined), 250 to 255 °C; for `COC(=O)Cc1c(Cl)ncnc1N(C)C`, 30 to 32 °C.
For `CC(=O)Nc1nc2ncn(C)c(=S)n2n1`, the melting point is over 300 °C.
`CCOC(=O)c1cc(O)c2ccc3c(c2c1-c1cc(OC)c(OC)c(OC)c1)OCO3` had a melting point of 151 to 152 °C.
For `CCCCCNC(=NC#N)Nc1cccnc1` the value was 130 to 132 °C; for `N=C1NCCN1Cc1ccccc1`, 165 to 167 °C.
Under `CC1CCc2ccc(C#N)c3c(=O)c(C(=O)O)cn1c23` (centres undefined) stands over 300 °C; under `CCN(CC)CCNC(=O)c1cc(C#N)c(Cl)cc1OC`, 104 to 105 °C.
Compound `CC(C)=Nn1c(C(F)(F)F)cc(=O)n(-c2cc(Oc3ccccc3[N+](=O)[O-])c(Cl)cc2F)c1=O` returned a melting point of 173 to 176 °C.
For `Cc1cc(Oc2c(Cl)cc(C(F)(F)F)cc2Cl)nn1C(=O)NCCBr` the value was 106 to 107 °C; for `O=C1c2ccccc2C(=O)c2oc(-c3cccs3)nc21`, over 260 °C.
Compound `Cc1cnc2c(=O)[nH]c3ccccc3n12` yielded a melting point of over 300 °C.
Under `CCOC(=O)c1cn(C2CC2)c2occc2c1=O` stands 200 to 201 °C; under `COCCOc1ccc(CCC(=O)NS(N)(=O)=O)c(Oc2ncc(C(F)(F)F)cc2Cl)c1`, 158 to 159 °C.
Under `C#CCN(C(C)=O)c1cccc(C(=O)C=CN(C)C)c1` stands 98 to 101 °C; under `COc1cccc(NC(=O)NCC(=O)N(CC(=O)OC(C)(C)C)c2ccccc2C(=O)c2ccccc2)c1`, 153 to 155 °C.
For `O=C1c2ccccc2C(=O)N1CCCCCCc1cccnc1` the value was 90 to 92 °C; for `Cc1oc(-c2ccccc2)nc1COc1ccc(C(C)CCC2SC(=O)NC2=O)cc1` (centres undefined), 64 to 65 °C.
As to `CC(C)(C#N)CCCCOc1cc(-c2ccccc2)cc(-c2ccccc2)n1`, the melting point was determined as 71 °C.
For `CC(=O)Nc1ccc(-n2ccnc2S(=O)Cc2ccccc2N2CCOCC2)nc1` (centres undefined) the value was 207 to 209 °C.
Under `CNc1ncnc2c1ncn2C1OC(CO)C(OC)C1(C)O` (centres undefined) stands 165 °C.
